Results as given in US20050101595A1, “N-containing cycloalkyl-substituted amino-thiazole derivatives and pharmaceutical compositions for inhibiting cell proliferation and methods for their use” (PFIZER INC., priority 2003, published 2005).
pIC50, pKi: −log10 of the molar value. Counter-ions that a name gives are not always drawn. Like-named read-outs stand apart in the source and are kept apart here.

Experiments:
[1] = biological target: CDK2/Cyclin A (Homo sapiens, UniProt P24941); assay: Inhibition of CDK2/Cyclin A Retinoblastoma Kinase Activity; format: biochemical; settings: for pKi: apparent Ki, CDK2/proteolyzed cyclin A, Rb fragment substrate, 25 μM ATP; for CDK2 % Inhibition At 0.03 μM: Table 2
Procedure, shortened: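 Percent inhibition is calculated against DMSO-only wells after subtracting no-enzyme background. The enzyme is human CDK2 complexed with proteolyzed cyclin A, used at 10 nM or 19 nM on an Rb fragment with 25 μM [32/33P]ATP, at pH 7.4 and 30° C.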

[2] = biological target: human CDK4 and genetically truncated (1-264) cyclin D3 (Homo sapiens, UniProt P11802); assay: Inhibition of CDK4/Cyclin D Retinoblastoma Kinase Activity; format: biochemical; settings: for pKi: apparent Ki, CDK4/truncated cyclin D3, Rb fragment substrate, 25 μM ATP
Procedure, shortened: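 Apparent Ki values derive from fitting activity at varied inhibitor concentrations to a competitive (or competitive tight-binding) model. Kinase reactions used 5 nM CDK4/cyclin D3(1-264), Rb fragment substrate and 25 μM ATP. Incubation ran 20 min at 30 °C, extended to 60 min under linear conditions for tight binders.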

[3] = test system: HCT-116 cell line; assay: Inhibition of cell growth, tetrazolium salt (MTT) assay; format: cell-based; settings: for HCT-116 % Inhibition at 0.25 μM: 0.25 μM compound; for pIC50: Homo sapiens, HCT-116, 120 h, MTT, three to five days, read-out: HCT-116 IC50
Procedure, shortened: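 HCT-116 cells in McCoy's 5A medium received compound 4 h after plating (0.5% v/v DMSO) and were incubated three to five days at 37° C, 5% CO2. MTT (0.2 mg/mL final) then added for 4 h; DMSO-solubilized formazan read at 540 nm against 0.5% DMSO-treated controls.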

[4] = 0.1 μM compound, HCT-116, Table 4
[5] = 0.1 μM compound, HCT-116, Table 3

human CDK4 and genetically truncated (1-264) cyclin D3, sequence (P11802 whole entry, the tested form may be a part): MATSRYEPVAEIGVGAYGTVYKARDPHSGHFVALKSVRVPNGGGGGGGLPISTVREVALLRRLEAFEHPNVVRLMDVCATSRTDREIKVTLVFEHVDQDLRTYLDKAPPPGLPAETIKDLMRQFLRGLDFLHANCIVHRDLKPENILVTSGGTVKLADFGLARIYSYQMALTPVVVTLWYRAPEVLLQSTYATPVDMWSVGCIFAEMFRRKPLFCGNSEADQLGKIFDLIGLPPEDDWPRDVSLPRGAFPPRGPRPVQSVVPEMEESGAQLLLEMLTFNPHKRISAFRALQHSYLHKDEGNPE
human CDK4 and genetically truncated (1-264) cyclin D3, sequence (P30281 1-264 partner): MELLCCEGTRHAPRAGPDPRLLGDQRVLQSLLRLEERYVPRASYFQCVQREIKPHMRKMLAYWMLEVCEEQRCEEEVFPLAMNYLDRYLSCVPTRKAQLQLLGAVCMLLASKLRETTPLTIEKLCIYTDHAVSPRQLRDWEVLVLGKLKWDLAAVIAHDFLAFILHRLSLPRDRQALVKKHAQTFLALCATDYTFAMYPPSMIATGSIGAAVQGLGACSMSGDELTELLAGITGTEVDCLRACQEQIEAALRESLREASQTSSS

Compound: Nc1nc(NC2CCN(C(=O)Oc3ccccc3)CC2)sc1C(=O)c1c(F)cccc1F [Example Q4]
- CDK2 % Inhibition at 0.03 μM ([1]; 0.03 μM compound, Table 4): 59%
- CDK4 % Inhibition at 0.03 μM ([2]; 0.03 μM compound, Table 4): 78%
- HCT-116 % Inhibition at 0.1 μM [3, 4]: 0%
- HCT-116 % Inhibition at 0.25 μM ([3]; HCT-116, Table 4): 41%

Compound: CS(=O)(=O)c1ccccc1S(=O)(=O)N1CCC(Nc2nc(N)c(C(=O)c3c(F)cccc3F)s2)CC1 [Example P81]
- CDK2 % Inhibition at 0.03 μM ([1]; 0.03 μM compound, Table 3): −5%
- CDK4 % Inhibition at 0.03 μM ([2]; 0.03 μM compound, Table 3): 36%
- HCT-116 % Inhibition at 0.1 μM [3, 5]: 12%
- HCT-116 % Inhibition at 0.25 μM ([3]; HCT-116, Table 3): 19%

Compound: COc1ccccc1C(=O)N1CCC(Nc2nc(N)c(C(=O)c3c(F)cccc3F)s2)CC1 [Example Q15]
- CDK2 % Inhibition at 0.03 μM ([1]; 0.03 μM compound, Table 4): 25%
- CDK4 % Inhibition at 0.03 μM ([2]; 0.03 μM compound, Table 4): 52%
- HCT-116 % Inhibition at 0.1 μM [3, 4]: 9%
- HCT-116 % Inhibition at 0.25 μM ([3]; HCT-116, Table 4): 45%

Compound: Nc1nc(NC2CCN(S(=O)(=O)c3cccc4ccccc34)CC2)sc1C(=O)c1c(F)cccc1F [Example P1]
- CDK2 % Inhibition at 0.03 μM ([1]; 0.03 μM compound, Table 3): 45%
- CDK4 % Inhibition at 0.03 μM ([2]; 0.03 μM compound, Table 3): 51%
- HCT-116 % Inhibition at 0.1 μM [3, 5]: 9%
- HCT-116 % Inhibition at 0.25 μM ([3]; HCT-116, Table 3): 32%

Compound: CN1CCN(CCCS(=O)(=O)N2CCC(Nc3nc(N)c(C(=O)c4c(F)cccc4F)s3)CC2)CC1 [Example K16, 1-(4-Amino-2-{1-[3-(4-methylpiperazin-1-yl)propane-1-sulfonyl]-piperidin-4-ylamino}-thiazol-5-yl)-1-(2,6-difluoro-phenyl)-methanone.]
- pKi [1]: 8.11
- pKi [2]: 8.55
- pIC50 ([3]; first HCT-116 column (c4)): 5.74
- pIC50 ([3]; second HCT-116 column (c5)): 5.30

Compound: Nc1nc(NC2CCN(S(=O)(=O)Nc3ccccc3)CC2)sc1C(=O)c1c(F)cccc1F [Example E2, 4-[4-Amino-5-(2,6-difluoro-benzoyl)-thiazol-2-ylamino]-piperidine-1-sulfonic acid phenylamide]
- pKi [1]: 8.92
- pKi [2]: 8.41
- pIC50 ([3]; first HCT-116 column (c4)): 6.17
- pIC50 ([3]; second HCT-116 column (c5)): 5.89

Compound: Cc1cc(C)c(C(=O)N2CCC(Nc3nc(N)c(C(=O)c4c(F)cccc4F)s3)CC2)c(C)c1 [Example R127]
- CDK2 % Inhibition at 0.03 μM ([1]; at 0.03 μM): 28%
- CDK4 % Inhibition at 0.03 μM ([2]; at 0.03 μM): 20%
- HCT-116 % Inhibition at 0.1 μM ([3]; HCT-116 cells, at 0.1 μM): 0%
- HCT-116 5 Inhibition at 0.25 μM ([3]; HCT-116 cells): 36

Compound: Nc1nc(NC2CCN(C(=O)c3cnn(-c4ccccc4)c3C(F)(F)F)CC2)sc1C(=O)c1c(F)cccc1F [Example R52]
- CDK2 % Inhibition at 0.03 μM ([1]; at 0.03 μM): 5%
- CDK4 % Inhibition at 0.03 μM ([2]; at 0.03 μM): 23%
- HCT-116 % Inhibition at 0.1 μM ([3]; HCT-116 cells, at 0.1 μM): 2%
- HCT-116 5 Inhibition at 0.25 μM ([3]; HCT-116 cells): 49

Compound: Nc1nc(NC2CCN(C(=O)NCCc3cccs3)CC2)sc1C(=O)c1c(F)cccc1F [Example O65]
- CDK2 % Inhibition At 0.03 μM ([1]; 0.03 μM compound): 22%
- CDK4 % Inhibition at 0.03 μM ([2]; 0.03 μM compound, Table 2): −7%
- HCT-116 % Inhibition at 0.25 μM ([3]; HCT-116, Table 2): 44%

Compound: Nc1nc(NC2CCN(C(=S)Oc3ccc(F)cc3)CC2)sc1C(=O)c1c(F)cccc1F [Example C11, 4-[4-Amino-5-(2,6-difluoro-benzoyl)-thiazol-2-ylamino}-piperidine-1-carbothioic acid —O-(4-Fluoro-phenyl) ester]
- pKi [1]: 8.19
- pKi [2]: 8.00
- pIC50 ([3]; first HCT-116 column (c4)): 6.40
- pIC50 ([3]; second HCT-116 column (c5)): 5.57

Compound: COC(=O)C(=O)N1CCC(Nc2nc(N)c(C(=O)c3c(F)cccc3F)s2)CC1 [Example Q38]
- CDK2 % Inhibition at 0.03 μM ([1]; 0.03 μM compound, Table 4): −12%
- CDK4 % Inhibition at 0.03 μM ([2]; 0.03 μM compound, Table 4): 16%
- HCT-116 % Inhibition at 0.1 μM [3, 4]: 0%
- HCT-116 % Inhibition at 0.25 μM ([3]; HCT-116, Table 4): 21%

Compound: CCSc1ncccc1C(=O)N1CCC(Nc2nc(N)c(C(=O)c3c(F)cccc3F)s2)CC1 [Example R19]
- CDK2 % Inhibition at 0.03 μM ([1]; at 0.03 μM): 37%
- CDK4 % Inhibition at 0.03 μM ([2]; at 0.03 μM): 54%
- HCT-116 % Inhibition at 0.1 μM ([3]; HCT-116 cells, at 0.1 μM): 0%
- HCT-116 5 Inhibition at 0.25 μM ([3]; HCT-116 cells): 46

Compound: COC(=O)CCc1ccc(S(=O)(=O)N2CCC(Nc3nc(N)c(C(=O)c4c(F)cccc4F)s3)CC2)cc1 [Example F46]
- pKi [1]: 9.10
- pKi [2]: 8.70
- pIC50 ([3]; first HCT-116 column (c4)): 6.10
- pIC50 ([3]; second HCT-116 column (c5)): < 5.30

Compound: CN(C)[C@@H](Cc1ccccc1)C(=O)N1CCC(Nc2nc(N)c(C(=O)c3c(F)cccc3F)s2)CC1 [Example D4, (4-[4-Amino-5-(2,6-difluoro-benzoyl)-thiazol-2-ylamino}-piperidin-1-yl)-2S-dimethylamino-phenyl-propan-1-one]
- pKi [1]: 5.59
- pKi [2]: 6.34
- pIC50 ([3]; first HCT-116 column (c4)): < 5.30

Compound: CCC(CC)C(=O)N1CCC(Nc2nc(N)c(C(=O)c3c(F)cccc3F)s2)CC1 [Example R164]
- CDK2 % Inhibition at 0.03 μM ([1]; at 0.03 μM): 9%
- CDK4 % Inhibition at 0.03 μM ([2]; at 0.03 μM): 19%
- HCT-116 % Inhibition at 0.1 μM ([3]; HCT-116 cells, at 0.1 μM): 0%
- HCT-116 5 Inhibition at 0.25 μM ([3]; HCT-116 cells): 41

Compound: CS(=O)(=O)c1ccc(S(=O)(=O)N2CCC(Nc3nc(N)c(C(=O)c4c(F)cccc4F)s3)CC2)cc1 [Example P80]
- CDK2 % Inhibition at 0.03 μM ([1]; 0.03 μM compound, Table 3): 81%
- CDK4 % Inhibition at 0.03 μM ([2]; 0.03 μM compound, Table 3): 73%
- HCT-116 % Inhibition at 0.1 μM [3, 5]: 15%
- HCT-116 % Inhibition at 0.25 μM ([3]; HCT-116, Table 3): 29%

Compound: Nc1nc(NC2CCN(C(=O)Cc3ccccc3)CC2)sc1C(=O)c1c(F)cccc1F [Example Q43]
- CDK2 % Inhibition at 0.03 μM ([1]; 0.03 μM compound, Table 4): 16%
- CDK4 % Inhibition at 0.03 μM ([2]; 0.03 μM compound, Table 4): 30%
- HCT-116 % Inhibition at 0.1 μM [3, 4]: 0%
- HCT-116 % Inhibition at 0.25 μM ([3]; HCT-116, Table 4): 24%

Compound: Nc1nc(NC2CCN(S(=O)(=O)c3cccc(C(=O)O)c3)CC2)sc1C(=O)c1c(F)cccc1F [Example P29]
- CDK2 % Inhibition at 0.03 μM ([1]; 0.03 μM compound, Table 3): 35%
- CDK4 % Inhibition at 0.03 μM ([2]; 0.03 μM compound, Table 3): 56%
- HCT-116 % Inhibition at 0.1 μM [3, 5]: 0%
- HCT-116 % Inhibition at 0.25 μM ([3]; HCT-116, Table 3): 21%

Compound: CN1CCCC(COc2ccc(S(=O)(=O)N3CCC(Nc4nc(N)c(C(=O)c5c(F)cccc5F)s4)CC3)cn2)C1 (centres unmarked) [Example H7, 1-[4-Amino-2-{1-[6-(1-methyl-piperidin-3RS-ylmethoxy)-pyridine-3-sulfonyl]-piperidin-4-ylamino}-thiazol-5-yl)-1-(2,6-difluoro-phenyl)-methanone Trifluoroacetic Acid Salt]
- pKi [1]: 9.10
- pKi [2]: 9.68
- pIC50 ([3]; first HCT-116 column (c4)): 7.40
- pIC50 ([3]; second HCT-116 column (c5)): 6.60

Compound: Nc1nc(NC2CCN(C(=O)NCCCl)CC2)sc1C(=O)c1c(F)cccc1F [Example O32]
- CDK2 % Inhibition At 0.03 μM ([1]; 0.03 μM compound): 30%
- CDK4 % Inhibition at 0.03 μM ([2]; 0.03 μM compound, Table 2): 12%
- HCT-116 % Inhibition at 0.25 μM ([3]; HCT-116, Table 2): 99%

Compound: Nc1nc(NC2CCN(S(=O)(=O)c3ccc(CCCN4CCCC4)nc3)CC2)sc1C(=O)c1c(F)cccc1F [Example I13, 1-(4-Amino-2-{1-[6-(3-pyrrolidin-1-yl-propyl)-pyridine-3-sulfonyl]-piperidin-4-ylamino}-thiazol-5-yl)-1-(2,6-difluoro-phenyl)-methanone Trifluoroacetic Acid Salt]
- pKi [1]: 8.89
- pKi [2]: 9.35
- pIC50 ([3]; first HCT-116 column (c4)): 6.55
- pIC50 ([3]; second HCT-116 column (c5)): 6.22

Compound: Nc1nc(NC2CCN(C(=O)Nc3ccc(F)cc3)CC2)sc1C(=O)c1c(F)cccc1F [Example O19]
- CDK2 % Inhibition At 0.03 μM ([1]; 0.03 μM compound): 31%
- CDK4 % Inhibition at 0.03 μM ([2]; 0.03 μM compound, Table 2): 9%
- HCT-116 % Inhibition at 0.25 μM ([3]; HCT-116, Table 2): 7%

Compound: CN(C)CCOc1ncc(S(=O)(=O)N2CCC(Nc3nc(N)c(C(=O)c4c(F)cccc4F)s3)CC2)cn1 [Example H24, (4-Amino-2-{1-[2-(2-dimethylamino-ethoxy)-pyrimidine-5-sulfonyl]-piperidin-4-ylamino}-thiazol-5-yl)-(2,6-difluoro-phenyl)-methanone Trifluoroacetic Acid Salt]
- pKi [1]: 8.74
- pKi [2]: 9.39
- pIC50 ([3]; first HCT-116 column (c4)): 6.85
- pIC50 ([3]; second HCT-116 column (c5)): 5.70

Compound: Nc1nc(NC2CCN(C(=O)c3sccc3Cl)CC2)sc1C(=O)c1c(F)cccc1F [Example C8, {4-Amino-2-[1-(3-chloro-thiophene-2-carbonyl)-piperidin-4-ylamino]-thiazol-5-yl}-(2,6-difluoro-phenyl)-methanone]
- pKi [1]: 7.35
- pKi [2]: 7.39
- pIC50 ([3]; first HCT-116 column (c4)): 6.34
- pIC50 ([3]; second HCT-116 column (c5)): 5.89
